Laboratory results reported in PubChem BioAssay AID2060602 (Molecular Pharmacology Branch, DTP, NCI, 2025).

Tested on: 648629-189-R-J1-PDC complex spheroids viability
Experiment: Anticancer human tumor 648629-189-R-J1-PDC patient-derived bladder carcinoma cell line growth inhibition [CLK]
Conditions: for IC50: curve of first compound; for viability, T/C: stronger effect = lower value
Procedure, shortened: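 Multi-cell-type spheroids combined patient-derived tumor cells with HUVEC endothelial cells and human mesenchymal stem cells. Paired agents were dosed in half-log steps down from about clinical Cmax, or from 10 microM where Cmax was unknown.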

[1] = second compound 0.0316 µM, first compound 0.0316 µM
[2] = second compound 0.0316 µM, first compound 0.1 µM
[3] = second compound 0.0316 µM, first compound 0.316 µM
[4] = second compound 0.0316 µM, first compound 1 µM
[5] = second compound 0.1 µM, first compound 0.0316 µM
[6] = second compound 0.1 µM, first compound 0.1 µM
[7] = second compound 0.1 µM, first compound 0.316 µM
[8] = second compound 0.1 µM, first compound 1 µM
[9] = second compound 0.316 µM, first compound 0.0316 µM
[10] = second compound 0.316 µM, first compound 0.1 µM
[11] = second compound 0.316 µM, first compound 0.316 µM
[12] = second compound 0.316 µM, first compound 1 µM
[13] = second compound 1 µM, first compound 0.0316 µM
[14] = second compound 1 µM, first compound 0.1 µM
[15] = second compound 1 µM, first compound 0.316 µM
[16] = second compound 1 µM, first compound 1 µM
[17] = second compound 3.16 µM, first compound 0.0316 µM
[18] = second compound 3.16 µM, first compound 0.1 µM
[19] = second compound 3.16 µM, first compound 0.316 µM
[20] = second compound 3.16 µM, first compound 1 µM
[21] = second compound 10 µM, first compound 0.0316 µM
[22] = second compound 10 µM, first compound 0.1 µM
[23] = second compound 10 µM, first compound 0.316 µM
[24] = second compound 10 µM, first compound 1 µM
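Throughout, for viability, T/C: drug exposure lasted seven days before viability readout; 100% = DMSO vehicle control wells.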

`C=CC(=O)Nc1cc(Nc2nccc(-c3cn(C)c4ccccc34)n2)c(OC)cc1N(C)CCN(C)C` + CNC(=O)c1ccc(Nc2nc(OC3CCCC3)c3c(-c4ccc5nc(C)oc5c4)c[nH]c3n2)c(OC)c1 showed an IC50 (second compound 0.0316 µM) of over 300 nM, an IC50 (second compound 0.1 µM) of 132 nM and an IC50 (second compound 0.316 µM) of under 0.949 nM. The IC50 (second compound 1 µM) was under 0.949 nM, the IC50 (second compound 3.16 µM) was under 0.949 nM and the IC50 (second compound 10 µM) was under 0.949 nM. It also gave a viability, T/C (second compound 0.0316 µM, first compound 0.000949 µM) of 92.6%, a viability, T/C (second compound 0.0316 µM, first compound 0.003 µM) of 103% and a viability, T/C (second compound 0.0316 µM, first compound 0.00949 µM) of 102%. It also gave a viability, T/C (second compound 0.0316 µM, first compound 0.03 µM) of 97.1%, a viability, T/C (second compound 0.0316 µM, first compound 0.0949 µM) of 100% and a viability, T/C (second compound 0.0316 µM, first compound 0.3 µM) of 95.4%. It also gave a viability, T/C (second compound 0.1 µM, first compound 0.000949 µM) of 83.9%, a viability, T/C (second compound 0.1 µM, first compound 0.003 µM) of 73.5% and a viability, T/C (second compound 0.1 µM, first compound 0.00949 µM) of 69.3%. The viability, T/C (second compound 0.1 µM, first compound 0.03 µM) was 66.2%, the viability, T/C (second compound 0.1 µM, first compound 0.0949 µM) was 51% and the viability, T/C (second compound 0.1 µM, first compound 0.3 µM) was 42.6%. For the same compound, the viability, T/C (second compound 0.316 µM, first compound 0.000949 µM) was 27.9%, the viability, T/C (second compound 0.316 µM, first compound 0.003 µM) was 27.3% and the viability, T/C (second compound 0.316 µM, first compound 0.00949 µM) was 21.8%. The viability, T/C (second compound 0.316 µM, first compound 0.03 µM) was 19%, the viability, T/C (second compound 0.316 µM, first compound 0.0949 µM) was 22.1% and the viability, T/C (second compound 0.316 µM, first compound 0.3 µM) was 15.5%. The viability, T/C (second compound 1 µM, first compound 0.000949 µM) was 21.3%, the viability, T/C (second compound 1 µM, first compound 0.003 µM) was 19.4% and the viability, T/C (second compound 1 µM, first compound 0.00949 µM) was 23.2%. It also gave a viability, T/C (second compound 1 µM, first compound 0.03 µM) of 16.1%, a viability, T/C (second compound 1 µM, first compound 0.0949 µM) of 16.5% and a viability, T/C (second compound 1 µM, first compound 0.3 µM) of 13.2%. For the same compound, the viability, T/C (second compound 3.16 µM, first compound 0.000949 µM) was 18.7%, the viability, T/C (second compound 3.16 µM, first compound 0.003 µM) was 19.8% and the viability, T/C (second compound 3.16 µM, first compound 0.00949 µM) was 16.6%. It also gave a viability, T/C (second compound 3.16 µM, first compound 0.03 µM) of 16.1%, a viability, T/C (second compound 3.16 µM, first compound 0.0949 µM) of 16.3% and a viability, T/C (second compound 3.16 µM, first compound 0.3 µM) of 14.8%. The viability, T/C (second compound 10 µM, first compound 0.000949 µM) was 18.5%, the viability, T/C (second compound 10 µM, first compound 0.003 µM) was 22.1% and the viability, T/C (second compound 10 µM, first compound 0.00949 µM) was 22.6%. It also gave a viability, T/C (second compound 10 µM, first compound 0.03 µM) of 17.6%, a viability, T/C (second compound 10 µM, first compound 0.0949 µM) of 17.9% and a viability, T/C (second compound 10 µM, first compound 0.3 µM) of 13.8%.

Work on `CCN1CCN(Cc2ccc(Nc3ncc(F)c(-c4cc(F)c5nc(C)n(C(C)C)c5c4)n3)nc2)CC1` + CNC(=O)c1ccc(Nc2nc(OC3CCCC3)c3c(-c4ccc5nc(C)oc5c4)c[nH]c3n2)c(OC)c1 yielded an IC50 (second compound 0.0316 µM) of over 1000 nM, an IC50 (second compound 0.1 µM) of over 1000 nM and an IC50 (second compound 0.316 µM) of under 3.16 nM. It also gave an IC50 (second compound 1 µM) of under 3.16 nM, an IC50 (second compound 3.16 µM) of under 3.16 nM and an IC50 (second compound 10 µM) of under 3.16 nM. For the same compound, the viability, T/C (second compound 0.0316 µM, first compound 0.00316 µM) was 98.4%, the viability, T/C (second compound 0.0316 µM, first compound 0.01 µM) was 103% and the viability, T/C [1] was 107%. For the same compound, the viability, T/C [2] was 100%, the viability, T/C [3] was 113% and the viability, T/C [4] was 136%. For the same compound, the viability, T/C (second compound 0.1 µM, first compound 0.00316 µM) was 81.3%, the viability, T/C (second compound 0.1 µM, first compound 0.01 µM) was 92.8% and the viability, T/C [5] was 104%. For the same compound, the viability, T/C [6] was 80.7%, the viability, T/C [7] was 102% and the viability, T/C [8] was 129%. For the same compound, the viability, T/C (second compound 0.316 µM, first compound 0.00316 µM) was 30.2%, the viability, T/C (second compound 0.316 µM, first compound 0.01 µM) was 28.1% and the viability, T/C [9] was 24.2%. The viability, T/C [10] was 28.4%, the viability, T/C [11] was 36.4% and the viability, T/C [12] was 39.6%. For the same compound, the viability, T/C (second compound 1 µM, first compound 0.00316 µM) was 17.2%, the viability, T/C (second compound 1 µM, first compound 0.01 µM) was 23% and the viability, T/C [13] was 19.1%. It also gave a viability, T/C [14] of 24.1%, a viability, T/C [15] of 21.5% and a viability, T/C [16] of 31.1%. For the same compound, the viability, T/C (second compound 3.16 µM, first compound 0.00316 µM) was 18.2%, the viability, T/C (second compound 3.16 µM, first compound 0.01 µM) was 18.6% and the viability, T/C [17] was 20.9%. For the same compound, the viability, T/C [18] was 17.8%, the viability, T/C [19] was 23.9% and the viability, T/C [20] was 25.1%. It also gave a viability, T/C (second compound 10 µM, first compound 0.00316 µM) of 16.2%, a viability, T/C (second compound 10 µM, first compound 0.01 µM) of 18.9% and a viability, T/C [21] of 18.1%. The viability, T/C [22] was 18.9%, the viability, T/C [23] was 24.3% and the viability, T/C [24] was 23.8%.

`Nc1ccccc1NC(=O)c1ccc(CNC(=O)OCc2cccnc2)cc1` + CNC(=O)c1ccc(Nc2nc(OC3CCCC3)c3c(-c4ccc5nc(C)oc5c4)c[nH]c3n2)c(OC)c1 showed an IC50 (second compound 0.0316 µM) of 1590 nM, an IC50 (second compound 0.1 µM) of 1560 nM and an IC50 (second compound 0.316 µM) of under 31.6 nM. It also gave an IC50 (second compound 1 µM) of under 31.6 nM, an IC50 (second compound 3.16 µM) of under 31.6 nM and an IC50 (second compound 10 µM) of under 31.6 nM. The viability, T/C [1] was 104%, the viability, T/C [2] was 93.5% and the viability, T/C [3] was 96.7%. It also gave a viability, T/C [4] of 63.9%, a viability, T/C (second compound 0.0316 µM, first compound 3.16 µM) of 27.1% and a viability, T/C (second compound 0.0316 µM, first compound 10 µM) of 0.72%. It also gave a viability, T/C [5] of 86.6%, a viability, T/C [6] of 90.8% and a viability, T/C [7] of 82.4%. For the same compound, the viability, T/C [8] was 65.1%, the viability, T/C (second compound 0.1 µM, first compound 3.16 µM) was 26.2% and the viability, T/C (second compound 0.1 µM, first compound 10 µM) was 0.23%. The viability, T/C [9] was 30.3%, the viability, T/C [10] was 22.9% and the viability, T/C [11] was 27.1%. The viability, T/C [12] was 27.5%, the viability, T/C (second compound 0.316 µM, first compound 3.16 µM) was 17.8% and the viability, T/C (second compound 0.316 µM, first compound 10 µM) was 0.7%. For the same compound, the viability, T/C [13] was 17.4%, the viability, T/C [14] was 19.8% and the viability, T/C [15] was 20.5%. It also gave a viability, T/C [16] of 18.4%, a viability, T/C (second compound 1 µM, first compound 3.16 µM) of 12.6% and a viability, T/C (second compound 1 µM, first compound 10 µM) of 0.5%. The viability, T/C [17] was 18.9%, the viability, T/C [18] was 18.3% and the viability, T/C [19] was 19.3%. It also gave a viability, T/C [20] of 18.5%, a viability, T/C (second compound 3.16 µM, first compound 3.16 µM) of 16.4% and a viability, T/C (second compound 3.16 µM, first compound 10 µM) of 0.52%. The viability, T/C [21] was 21.7%, the viability, T/C [22] was 16.4% and the viability, T/C [23] was 19.5%. For the same compound, the viability, T/C [24] was 23.9%, the viability, T/C (second compound 10 µM, first compound 3.16 µM) was 15.6% and the viability, T/C (second compound 10 µM, first compound 10 µM) was 1.56%.
